According to US11440939B2, “Anticancer peptides” (IDP DISCOVERY PHARMA, S.L., priority 2017, dated 2022):
Numbered stars: 1 amine (or outer) side, 2 acyl side, 3 side chain; on linkers, the order of the positions; unused ones are H or OH. Bridge positions count the residues as written; N and C are the ends. Square brackets hold non-standard residues; d marks the D form. Peptide text beside a SMILES is read from it. ξ: configuration not given here. ξαMeNle(6-ylidene) = CC(CCCC=[*:3])(N[*:1])C(=O)[*:2]; X1 = CC(CCCCCCC=[*:3])(N[*:1])C(=O)[*:2]

Legend:
Type in all cases: cell-based
NCI-H524 = conditions: 72 h
Protocol: NCI-H524, lung (small cell lung cancer, SCLC), ATCC-CRL-5831;
(§1) Cell line MCF-7 was cultured in incubator under CO2 (6%) at 37° C. in DMEM high glucose (Dulbecco's Modified Eagle Solution, Gibco-BRL 31966-21) medium with 10% fetal bovine serum inactivated (FBS) (Gibco-BRL 10106-169). Cell lines HL-60, NCI-H524, NCI-H526, NCI-H69, NCI-H82, NCI-H187 and H5B were cultured in an incubator at 37° C. in RPMI-1640 (Sigma R8758) medium with 10% of fetal bovine serum inactivated (FBS) and 2 mM glutamine (Sigma G7513). Cell line NCI-H510A was cultured in incubator in F12K medium with 10% of fetal bovine serum inactivated (FBS). Cell line GBM-18 and GBM-27 were cultured in incubator under CO2 (6%) at 37° C. in complete medium (Neurobasal+B27+Glutamax+Growth factors).
(§2) During the amplification step and the assays, adherent cells were rinsed with DPBS (Dulbecco's Phosphate Buffered Saline, Sigma D1283) three times and afterward treated for 5 minutes with trypsin ([…]) (Gibco-BRL, 15400054) in solution of DPBS at 37° C., and, once detached, transferred in the culturing medium. No-adherent cells were centrifuged and transferred in the culturing medium. Cells were counted in a Neubauer chamber after labelling with Tripan-Blue. […]
(§3) Cells were incubated during 72 h in incubator under CO2 atmosphere at 37° C. Cell viability was measured by means of MTT (3-(4,5-dimethylthiazol-2-yl)-2,5-diphenyltetrazolium bromide) assay, Alamar Blue® (Biosource DAL1100) and Hexosaminidase activity test, consecutively, following manufacturer instructions.
MTT: 1. […] Absorbance at 570 nm was finally measured.
Alamar Blue: 10 μl Alamar Blue solution was added to each well and the plates were incubated for […] in the incubator. Fluorescence ratio at 535/590 (excitation/emission) was measured in Cytofluor (Millipore) fluorimeter. Blank control was determined by lysis of untreated cells with con 2% of Triton X100, right before adding Alamar Blue solution. […]

MCF-7 = tested on: MCF-7
Protocol: MCF-7, epithelial (breast cancer), ECACC: 86012803;
as §1, with “Cell line GBM-18 and GBM-27 were cultured in incubator under CO2 (6%) at 37° C. in complete medium (Neurobasal+B27+Glutamax+Growth factors).” left out
as §2, with “No-adherent cells were centrifuged and transferred in the culturing medium.” left out
as §3
MTT: 1. […] Absorbance at 570 nm was finally measured. […]

GBM-18 = tested on: GBM-18
Protocol: GMB-18, epithelial (glioblastoma, GMB), from surgical specimens from patients;
as §1, with “Cell line GBM-18 and GBM-27 were cultured in incubator under CO2 (6%) at 37° C. in complete medium (Neurobasal+B27+Glutamax+Growth factors).” left out
During the amplification step and the assays, adherent cells were rinsed with DPBS (Dulbecco's Phosphate Buffered Saline, Sigma D1283) three times and afterward treated for 5 minutes with trypsin ([…]) (Gibco-BRL, 15400054) in solution of DPBS at 37° C., and, once detached, transferred in the culturing medium. […] Cells were counted in a Neubauer chamber after labelling with Tripan-Blue.
as §3, with “instructions. […]” for “instructions.”

[1] = Hepatotoxicity assay, trypan blue exclusion, 24 h; conditions: female, primary human hepatocytes, human hepatocytes, 24 h
Excerpt: (§4) NCI-510A, epithelial (small cell lung cancer, SCLC), ATCC-HBT-124; and Hepatocytes (normal liver), from a donor was provided by Foundation DTI-Donation & Transplantation Institute from surgical wastes and from organs not suitable for transplantation
(§5) Human liver from a donor was subjected to hepatocyte isolation by using a two-step tissue microperfusion technique taking maximum care to avoid anoxia before cannulation, since hepatocytes are cells highly sensitive to oxygen levels. An initial anoxic state could result in a low viability of the cells, and will later affect their metabolic capacity in the culture. Briefly, liver tissue was cannulated by using the accessible vessels with a 1 mm-diameter needle. A balanced salt solution was injected to clean the organ by using a peristaltic pump adjusted to a flow rate of 18-20 ml/min. After washing, a solution containing collagenase was added for liver disintegration. The cell suspension obtained using this process was filtered and centrifuged and, after a couple of washings to remove collagenase, cells were re-suspended in culture medium Ham's F-12/William (1:1) medium supplemented with 2 mM glutamine, […] sodium selenite, 2% newborn calf serum, 50 mU/ml penicillin, 50 μg/ml streptomycin, 0.1% bovine serum albumin, 1.68 mM NAME, 26 mM sodium bicarbonate, 25 μg/ml transferrin, 65.5 μM ethanolamine, 7.2 μM linoleic acid, 17.5 mM glucose, 6.14 mM ascorbic acid and 10 nM insulin.
(§6) After resuspension, a cell aliquot was removed and viability was determined by cell counting using the trypan blue exclusion method. Trypan blue uptake is the result of cell membrane alteration and in consequence of cell death. Thus, to quantify cell viability, 0.4% trypan blue in saline was added to the cells and these were immediately loaded in a Neubauer chamber. Viable cells were counted in 5 different fields under the optical microscope as non-blue cells. % Viability=Number of non-blue cells×100/Number of total cells Viability and Hepatoxicity Assay
(§7) Human hepatocytes isolated and re-suspended as described before were seeded at 100,000 viable cells/well on 96 collagen-coated plates in order to assess compound's cytotoxicity. After 1 hour in culture, medium was renewed to eliminate cell debris. Cultured human hepatocytes were allowed to stay in culture for 24 hours prior performing the experiments. After 24 h, the compounds to be tested were added to calculate the dose/response curve at the starting concentration of 400 μM with serial dilutions. Each experiment was performed in triplicate. Cells were incubated during 24 h in incubator under CO2 atmosphere at 37° C.
(§8) The viability was determined by cell counting using the trypan blue exclusion method. % Viability=Number of non-blue cells×100/Number of total cells Statistics

Human hepatocytes = assay: Hepatotoxicity assay, trypan blue exclusion, 24 h; conditions: dose of 4 and 14 μM
Excerpt: as §4, §5, §6, §7, §8

CC(C)C[C@H](NC(=O)[C@H](CCCCN)NC(=O)[C@@H](NC(=O)[C@@H](N)CCCNC(=N)N)C(C)C)C(=O)N[C@H](C(=O)N[C@@H](CC(N)=O)C(=O)N[C@@H](CC(C)C)C(=O)NC1(C)CCCCCCC=CCCCC(C)(C(=O)N[C@H](C(=O)N2CCC[C@H]2C(N)=O)C(C)C)NC(=O)[C@H](CCC(=O)O)NC(=O)[C@H](CCCNC(=N)N)NC(=O)[C@H](CC(C)C)NC(=O)[C@H]([C@@H](C)O)NC(=O)[C@H](C)NC(=O)[C@H](Cc2ccccc2)NC1=O)C(C)C (stereo partly drawn) [H14] (H-RVKLVNL[X1]FATLRE[ξαMeNle(6-ylidene)]VP-NH2; staple 8-15; N-terminus and C-terminus assumed)
EC50 (NCI-H524): ~12.5 µM | EC50 (MCF-7): ~9 µM | EC50 (GBM-18): ~4 µM | viability at 24 h, 4 µM ([1]; H14 4 μM): 113% | viability at 24 h, 14 µM ([1]; H14 14 μM): 119% | toxicity for normal hepatocytes (in words) (Human hepatocytes): not toxic
